The results in this text go back to patent US20260207632A1, “C[…] THERAPY” (KINGDOM THERAPEUTICS LIMITED, priority 2022, published 2026).

SMILES strings stand for the structures.

Experiment [1] relates to rodent in utero VPA model of autism. Briefly: Behavioural changes in rodent in utero VPA model of autism (overall conclusion). The experiment is classed as in vivo, rat. Particulars: sub-chronic treatment with CBD alone, p.o. On the procedure:
In the first study, a sub-chronic 8-day dosing schedule was employed with the test compound CBD administered alone (10, 30 and 60 mg/kg, p.o. VPA/CBD; dose volume 5 ml/kg). Control animals were administered sterile saline (0.9% w/v, i.p.) in utero and the vehicle control (ethanol: Kolliphor HS-15:0.9% saline (1:1:18, v/v/v) p.o. VEH/VEH). The test compound and vehicle control were administered to the animals once daily for 7 days prior to, and once again on each day of behavioural assessment, 60 minutes prior to test which consisted of a battery of behavioural paradigms: P30 social play and bottle brush test, P31-32 open field exploratory behaviour. […] Subsequent to behavioural analysis the effect of CBD on gastrointestinal permeability was evaluated four hours following oral administration of fluorescein isothiocyanate-labelled dextran measured in plasma on postnatal day 33. […] 5 In the second study, the sub-optimal dose of CBD (30 mg/kg, p.o.) was evaluated in combination with administration of THC at increasing concentration (0.75, 1.5 and 3 mg/kg, p.o. VPA/CBD+THC). […] Behavioural and gastrointestinal readouts were examined as per study one with terminal samples collected on the final day of the experiment.
Two experimental studies carried out 1). that established the effective dose of CBD and 2). determined the additive effect of CBD in combination with THC at increasing ratios. […]

Experiment [2] relates to colonic myeloperoxidase (MPO) activity. Briefly: Colon myeloperoxidase (MPO) activity (P34) in distal colon, VPA rat model. The format is in vivo. On the set-up: key to MPO activity: +: improvement; Ø: no change. The method, then: In the first study, a sub-chronic 8-day dosing schedule was employed with the test compound CBD administered alone (10, 30 and 60 mg/kg, p.o. VPA/CBD; dose volume 5 ml/kg). Control animals were administered sterile saline (0.9% w/v, i.p.) in utero and the vehicle control (ethanol: Kolliphor HS-15:0.9% saline (1:1:18, v/v/v) p.o. VEH/VEH). The test compound and vehicle control were administered to the animals once daily for 7 days prior to, and once again on each day of behavioural assessment, 60 minutes prior to test which consisted of a battery of behavioural paradigms: P30 social play and bottle brush test, P31-32 open field exploratory behaviour. A reference positive control, the atypical antipsychotic risperidone (0.125 mg/kg, i.p., once per day for 8 days prior to and for duration of behavioural testing), was included in study one for comparison. Subsequent to behavioural analysis the effect of CBD on gastrointestinal permeability was evaluated four hours following oral administration of fluorescein isothiocyanate-labelled dextran measured in plasma on postnatal day 33. On postnatal day 34, 60 minutes post a final treatment with the test agents, animals were humanely euthanised and samples collected to evaluate inflammatory biomarkers, gastrointestinal function and histology. 5 In the second study, the sub-optimal dose of CBD (30 mg/kg, p.o.) was evaluated in combination with administration of THC at increasing concentration (0.75, 1.5 and 3 mg/kg, p.o. VPA/CBD+THC). Comparison was made to CBD administered alone at the sub-optimal and effective doses (30 and 60 mg/kg, p.o.) and to vehicle controls as per study one. Behavioural and gastrointestinal readouts were examined as per study one with terminal samples collected on the final day of the experiment.
(§1) Five animals were chosen at random from each of the agreed treatment groups. Colon tissue was collected after euthanasia, weighted, flushed using cold sterile saline, and divided into three sections. One distal sample (approx. 1 cm×1 cm) was employed for intestinal myeloperoxidase (MPO) activity as described below by Berand Ltd. This sample was weighed and stored at −80° C. until use. A second proximal colon sample (approx. 1 cm×5 cm) was prepared for histological analysis by collection using the Swiss roll technique, placed into a cassette for paraffin embedding and preservation in 10% formalin solution for 24 hours. They were then transferred into 70% ethanol solution until paraffin embedded. These samples were shipped in 70% ethanol solution to Transpharmation Ltd at trinity College Dublin, Ireland for further processing. Haematoxylin & eosin staining was performed on the tissue before imaging. Five images were taken from each animal at 1.25× magnification. Using ImageJ the thickness of the muscle layer was measured at 5 locations throughout the section. A third medial section of colon (approx. 1 cm×2.5 cm) was frozen in liquid nitrogen for the analysis of cytokine expression and was shipped at minus 80° C. to Transpharmation Ltd at Trinity College Dublin, Ireland.
Analysis of colonic myeloperoxidase (MPO) activity employed a colorimetric activity assay kit (MAK068, Sigma-Aldrich, Ireland). Samples were analysed according to the manufacturer's instructions. Briefly, weighted distal colon tissues from all the groups were rapidly homogenized with 4 volumes of MPO Assay buffer and then centrifuged (13000 g×10 min, 4° C.) to obtain the supernatant. A 50 μl aliquot of each was added to a flat bottomed 96 well plate and brought to a final volume of 100 μl with MPO assay buffer. The MPO activity in milliunits/mL was determined using a 5,5′-dithiobis-(2-nitrobenzoic acid) (DTNB) probe to produce a TNB chromophore in a standard curve (0-50 nmol/mL). Standards and blank were prepared according to manufacturer's instruction. Absorbance was read at 412 nm at 60 minutes and expressed per mg of tissue sample. […]

Experiment [3] concerns rat VPA model of autism. Briefly: Muscle thickness in rat colonic tissue (H&E histology), VPA rat model. The note with it: for Average Muscle Thickness: VPA in utero. The experiment is classed as in vivo. On the procedure: as §1
Staining was performed using the Haematoxylin and Eosin kit from Vector Laboratories (Cat. No. H-3502). Sections were deparaffinized and rehydrated by washing in xylene (3×5 min), 100% ethanol (1 min), 96% ethanol (1 min) and distilled water (2 min). Each section was fully covered in haematoxylin stain and left for 5 min before being washed twice in distilled water for 15 s. […]
Sections were imaged using an Olympus BX51 microscope at a magnification of 1.25×. Images were then analysed using ImageJ software. Thickness of muscle were measured from luminal surface to muscularis mucosa and from luminal surface to external muscle layer. […]
For the histological analysis of colonic tissue, statistical analysis was performed using GraphPad Prism 9. Normality was assessed using the Shapiro-Wilk test. […]

As to `C=C(C)[C@@H]1CCC(C)=C[C@H]1c1c(O)cc(CCCCC)cc1O` [CBD, cannabidiol], the minimum effective dose in experiment [1] stood at 60 mg/kg. In addition, the MPO activity entry in experiment [2] (cohort one, CBD 10 mg/kg p.o.) is “Ø”; in experiment [2] (cohort one, CBD 30 mg/kg p.o.), “Ø”; in experiment [2] (cohort one, CBD 60 mg/kg p.o.), “+”; in experiment [2] (cohort two, CBD 30 mg/kg, THC 0 mg/kg p.o.), “Ø”; in experiment [2] (cohort two, CBD 60 mg/kg, THC 0 mg/kg p.o.), “+”. Moreover, the “increase in colonic MPO activity” value in experiment [2] (study one, CBD 60 mg/kg, vs VPA/VEH) is listed as “significantly prevented”; in experiment [2] (study two, CBD 30 mg/kg) it was “without significant effect”; in experiment [2] (study two, CBD 60 mg/kg), “significantly prevented”. Further, the figures for the “Average Muscle Thickness” value in experiment [3] (CBD 30 mg/kg) and in experiment [3] (CBD 60 mg/kg) were 220.4 μm and 207.2 μm, respectively. Moreover, the “thinning of colonic muscle” value in experiment [3] (VPA rats, treatment with CBD (30, 60 mg/kg)) is reported as “attenuated”.
For `Cc1nc2n(c(=O)c1CCN1CCC(c3noc4cc(F)ccc34)CC1)CCCC2` [Risperidone, risperidone], in experiment [2] (cohort one, risperidone 0.125 mg/kg i.p.), the MPO activity result is listed as “Ø”. For the same compound, the “increase in colonic MPO activity” value in experiment [2] (study one, risperidone 0.125 mg/kg i.p.) is recorded as “without effect”.
